Consider 25 compounds from patent US20130196986A1 (priority 2010, published 2013).

SMILES strings stand for the structures.

The assay deals with T1, P2X7 receptor (Homo sapiens, UniProt Q99572).
T1 construct: stably expressing the full length P2X7 receptor; expressed in transfected cells
T1 sequence (Q99572 1-595): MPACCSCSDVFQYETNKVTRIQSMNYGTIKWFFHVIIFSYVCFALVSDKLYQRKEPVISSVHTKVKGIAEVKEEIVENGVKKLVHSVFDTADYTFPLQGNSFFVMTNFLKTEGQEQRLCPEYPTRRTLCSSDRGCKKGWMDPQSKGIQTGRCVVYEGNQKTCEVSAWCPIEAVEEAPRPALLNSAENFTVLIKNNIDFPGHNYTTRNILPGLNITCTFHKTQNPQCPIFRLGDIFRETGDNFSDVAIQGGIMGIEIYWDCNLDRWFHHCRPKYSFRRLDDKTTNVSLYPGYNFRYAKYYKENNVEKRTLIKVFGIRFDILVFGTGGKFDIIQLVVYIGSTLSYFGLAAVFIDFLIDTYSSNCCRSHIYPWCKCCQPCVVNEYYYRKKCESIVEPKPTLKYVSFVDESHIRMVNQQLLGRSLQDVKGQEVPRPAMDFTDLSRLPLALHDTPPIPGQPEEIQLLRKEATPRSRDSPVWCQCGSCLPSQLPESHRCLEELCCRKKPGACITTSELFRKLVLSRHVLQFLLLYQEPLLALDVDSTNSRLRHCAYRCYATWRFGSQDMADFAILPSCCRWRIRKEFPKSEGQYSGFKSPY
Description: Ca++ flux assay (FLIPR) in P2X7-HEK-293 cell line stably expressing the full length P2X7 receptor, Bz-ATP activation. The class given is cell-based. The conditions noted are these: P2X7-HEK-293 cells; agonist Bz-ATP; fluorescence as total area over 90 seconds; read-out: P2X7 Ca Flux hu IC50. In short, it runs like this: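 HEK-293 cells stably expressing full-length P2X7 were loaded with Ca++-sensitive dye for 1 h, with compound added during loading. Cells were stimulated with Bz-ATP on FLIPR. Fluorescence was integrated as total area over 90 s, and IC50 was taken as 50% inhibition of the maximal Ca++ response.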
Usually IC50 stands for the concentration at which inhibition is half-maximal. `Cc1c(Cl)cccc1-n1ccn2c(S(=O)(=O)Cc3ccccc3)nnc2c1=O` [Compound 139, 3-(benzylsulfonyl)-7-(3-chloro-2-methylphenyl)-[1,2,4]triazolo[4,3-a]pyrazin-8(7H)-one]: the IC50 was 31.7 nM.

As to `[2H]c1c([2H])c([2H])c(C([2H])([2H])S(=O)(=O)c2nnc3c(=O)n(-c4cccc(Cl)c4C)ccn23)c([2H])c1[2H]` [Compound 140, deuterated-7-(3-chloro-2-methylphenyl)-3-[(phenyl-(d5)methyl-(d2))sulfonyl]-1,2,4-triazolo[4,3-a]pyrazin-8(7H)-one], the IC50 came to 31.8 nM. For `Cc1ccc(-c2ccccc2CS(=O)(=O)c2nnc3c(=O)n(-c4cccc(C(F)(F)F)c4C)ccn23)s1` [Compound 141] the value was 37 nM; for `[2H]c1c([2H])c([2H])c(CS(=O)(=O)c2nnc3c(=O)n(-c4cccc(Cl)c4C)ccn23)c([2H])c1[2H]` [Compound 142, deuterated-7-(3-chloro-2-methylphenyl)-3-[(phenyl-(d5)methyl)sulfonyl]-1,2,4-triazolo[4,3-a]pyrazin-8(7H)-one], 39.5 nM; for `Cc1c(-n2ccn3c(S(=O)(=O)Cc4ccccc4-c4cccs4)nnc3c2=O)cccc1C(F)(F)F` [Compound 143, 7-(2-methyl-3-(trifluoromethyl)phenyl)-3-(2-(thiophen-2-yl)benzylsulfonyl)-[1,2,4]triazolo[4,3-a]pyrazin-8(7H)-one], 46.2 nM.

For the compound `O=c1c2nnc(S(=O)(=O)C(c3ccccc3)c3ccccc3)n2ccn1-c1cccc(C(F)(F)F)c1Cl` [Compound 144, 3-(benzhydrylsulfonyl)-7-(2-chloro-3-(trifluoromethyl)phenyl)-[1,2,4]triazolo[4,3-a]pyrazin-8(7H)-one], the IC50 amounted to 130 nM.

For the compound `O=c1c2nnc(S(=O)(=O)Cc3cccc4ccccc34)n2ccn1-c1cccc(C(F)(F)F)c1Cl` [Compound 145, 7-(2-chloro-3-(trifluoromethyl)phenyl)-3-(naphthalen-1-ylmethylsulfonyl)-[1,2,4]triazolo[4,3-a]pyrazin-8(7H)-one], the IC50 worked out at 47.9 nM. For `COc1cccc(-c2ccccc2CS(=O)(=O)c2nnc3c(=O)n(-c4cccc(C(F)(F)F)c4C)ccn23)c1` [Compound 146, 3-((3′-methoxybiphenyl-2-yl)methylsulfonyl)-7-(2-methyl-3-(trifluoromethyl)phenyl)-[1,2,4]triazolo[4,3-a]pyrazin-8(7H)-one] the value was 47 nM; for `Cc1c(-n2ccn3c(S(=O)(=O)Cc4cscc4Br)nnc3c2=O)cccc1C(F)(F)F` [Compound 147, 3-((4-bromothiophen-3-yl)methylsulfonyl)-7-(2-methyl-3-(trifluoromethyl)phenyl)-[1,2,4]triazolo[4,3-a]pyrazin-8(7H)-one], 45.8 nM; for `Cc1c(Cl)cccc1-n1ccn2c(S(=O)(=O)Cc3ccc(F)cc3Cl)nnc2c1=O` [Compound 148, 7-(3-chloro-2-methylphenyl)-3-(2-chloro-4-fluorobenzylsulfonyl)-[1,2,4]triazolo[4,3-a]pyrazin-8(7H)-one], 47 nM. The figure for `Cc1c(-n2ccn3c(S(=O)(=O)Cc4ccccc4-c4ccccc4)nnc3c2=O)cccc1C(F)(F)F` [Compound 149] is 48 nM. For `Cc1ccc(-c2ccccc2CS(=O)(=O)c2nnc3c(=O)n(-c4cccc(C(F)(F)F)c4C)ccn23)s1` [Compound 150], the IC50 worked out at 48.9 nM. The figure for `Cc1c(Cl)cccc1-n1ccn2c(S(=O)(=O)Cc3ccccc3-c3cccs3)nnc2c1=O` [Compound 151, 7-(3-chloro-2-methylphenyl)-3-(2-(thiophen-2-yl)benzylsulfonyl)-[1,2,4]triazolo[4,3-a]pyrazin-8(7H)-one] is 50.9 nM; for `Cc1cccc(-c2ccccc2CS(=O)(=O)c2nnc3c(=O)n(-c4cccc(C(F)(F)F)c4C)ccn23)c1` [Compound 152] it is 51 nM.

As for `Cc1c(-n2ccn3c(S(=O)(=O)Cc4ccccc4Oc4ccccc4)nnc3c2=O)cccc1C(F)(F)F` [Compound 153, 7-(2-methyl-3-(trifluoromethyl)phenyl)-3-(2-phenoxybenzylsulfonyl)-[1,2,4]triazolo[4,3-a]pyrazin-8(7H)-one], the IC50 was 51.5 nM. For `Cc1ccc(-c2ccccc2CS(=O)(=O)c2nnc3c(=O)n(-c4cccc(C(F)(F)F)c4C)ccn23)cc1` [Compound 154, 7-(2-methyl-3-(trifluoromethyl)phenyl)-3-((4′-methylbiphenyl-2-yl)methylsulfonyl)-[1,2,4]triazolo[4,3-a]pyrazin-8(7H)-one] the value was 51.9 nM. Consider `Cc1c(Cl)cccc1-n1ccn2c(S(=O)(=O)Cc3ccccc3-c3ccccc3)nnc2c1=O` [Compound 155, 3-(biphenyl-2-ylmethylsulfonyl)-7-(3-chloro-2-methylphenyl)-[1,2,4]triazolo[4,3-a]pyrazin-8(7H)-one], for which the IC50 was found to be 53.2 nM.

For the compound `Cc1c(Cl)cccc1-n1ccn2c(S(=O)(=O)Cc3cccc(Cl)c3)nnc2c1=O` [Compound 156, 7-(3-chloro-2-methylphenyl)-3-(3-chlorobenzylsulfonyl)-[1,2,4]triazolo[4,3-a]pyrazin-8(7H)-one], the IC50 is 119 nM. Consider `Cc1c(Cl)cccc1-n1ccn2c(S(=O)(=O)Cc3ccc(Cl)cc3)nnc2c1=O` [Compound 157, 7-(3-chloro-2-methylphenyl)-3-(4-chlorobenzylsulfonyl)-[1,2,4]triazolo[4,3-a]pyrazin-8(7H)-one], for which the IC50 came to 136 nM.

For the compound `Cc1c(Cl)cccc1-n1ccn2c(S(=O)(=O)Cc3ccccc3N3CCOCC3)nnc2c1=O` [Compound 158, 7-(3-chloro-2-methylphenyl)-3-(2-morpholinobenzylsulfonyl)-[1,2,4]triazolo[4,3-a]pyrazin-8(7H)-one], the IC50 was 189 nM.

In the case of `Cc1c(-n2ccn3c(S(=O)(=O)Cc4cccc5c4-c4ccccc4C5)nnc3c2=O)cccc1C(F)(F)F` [Compound 159, 3-((9H-fluoren-4-yl)methylsulfonyl)-7-(2-methyl-3-(trifluoromethyl)phenyl)-[1,2,4]triazolo[4,3-a]pyrazin-8(7H)-one], the IC50 is 1130 nM.

`Cc1onc(-c2ccccc2)c1CS(=O)(=O)c1nnc2c(=O)n(-c3cccc(C(F)(F)F)c3C)ccn12` [Compound 160, 7-(2-methyl-3-(trifluoromethyl)phenyl)-3-((5-methyl-3-phenylisoxazol-4-yl)methylsulfonyl)-[1,2,4]triazolo[4,3-a]pyrazin-8(7H)-one]: the IC50 is 284 nM. Consider `Cc1c(Cl)cccc1-n1ccn2c(S(=O)(=O)Cc3cc(Cl)cc(Cl)c3)nnc2c1=O` [Compound 161, 7-(3-chloro-2-methylphenyl)-3-(3,5-dichlorobenzylsulfonyl)-[1,2,4]triazolo[4,3-a]pyrazin-8(7H)-one], for which the IC50 amounted to 335 nM. For `Cc1c(Cl)cccc1-n1ccn2c([S+]([O-])Cc3cc(Cl)cc(Cl)c3)nnc2c1=O` (stereo not shown) [Compound 162, 7-(3-chloro-2-methylphenyl)-3-(3,5-dichlorobenzylsulfinyl)-[1,2,4]triazolo[4,3-a]pyrazin-8(7H)-one] the value was 335 nM; for `Cc1c(-n2ccn3c(S(=O)(=O)CC(=O)c4ccccc4)nnc3c2=O)cccc1C(F)(F)F` [Compound 163, 7-(2-methyl-3-(trifluoromethyl)phenyl)-3-(2-oxo-2-phenylethylsulfonyl)-[1,2,4]triazolo[4,3-a]pyrazin-8(7H)-one], 3110 nM.
